Patent publication US10294202B2, “Pyrrolidinones as herbicides” (FMC Corporation, priority 2013, dated 2019)

Key:
cocklebur = assay: Test E preemergence herbicide test; format: in vivo, Xanthium strumarium; set-up: key: 0 = no effect, 100 = complete control
From the text: Seeds of plant species selected from corn (Zea mays), soybean (Glycine max), velvetleaf (Abutilon theophrasti), lambsquarters (Chenopodium album), wild poinsettia (Euphorbia heterophylla), pigweed, palmer (palmer pigweed, Amaranthus palmeri), waterhemp (common waterhemp, Amaranthus rudis), surinam grass (Brachiaria decumbens), crabgrass, large (large crabgrass, Digitaria sanguinalis), crabgrass, Brazil (Brazilian crabgrass, Digitaria horizontalis), panicum, fall (fall panicum, Panicum dichotomiflorum), foxtail, giant (giant foxtail, Setaria faberii), foxtail, green (green foxtail, Setaria viridis), goosegrass (Eleusine indica), johnsongrass (Sorghum halepense), ragweed (common ragweed, Ambrosia elatior), barnyardgrass (Echinochloa crus-galli), sandbur (southern sandbur, Cenchrus echinatus), arrowleaf […] rhombifolia), ryegrass, Italian (Italian ryegrass, Lolium multiflorum), dayflower, VA (Virginia dayflower, Commelina virginica), field bindweed (Convolvulus arvensis), morningglory (Ipomoea coccinea), nightshade (eastern black nightshade, Solanum ptycanthum), kochia (Kochia scoparia), nutsedge, yellow (yellow nutsedge, Cyperus esculentus), cocklebur (common cocklebur, Xanthium strumarium), smartweed (ladysthumb smartweed, Polygonum Persicaria) and beggarticks (hairy beggarticks, Bidens pilosa), were planted into a silt loam soil and treated preemergence with test chemicals formulated in a non-phytotoxic solvent mixture which included a surfactant. Treated plants and controls were maintained in a greenhouse for 21 days, after which time all species were compared to controls and visually evaluated. Plant response ratings, summarized in Table E, are based on a scale of 0 to 100 where 0 is no effect and 100 is complete control. A dash (-) response means no test result.

Rice, W.S. Ind = assay: Test F flood (paddy) test; format: in vivo, Oryza sativa Indica; settings: 21 d, scale 0-100
Procedure, shortened: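 Greenhouse paddy, 30/27 °C day/night, 16-h light; sterilized Tama silt loam, 2.6% OM. Plants at 2.0–2.5 leaves; flood 3 cm, compound added directly to water. Visual score at 21 d, 0 = no effect, 100 = complete control, relative to untreated.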

sedge, umbrella = assay: Test F flood (paddy) test; format: in vivo, Cyperus difformis; settings: 21 d, scale 0-100
From the text: (§1) Three plastic pots (ca. 16-cm diameter) per rate were partially filled with sterilized Tama silt loam soil comprising a 35:50:15 ratio of sand, silt and clay and 2.6% organic matter. Separate plantings for each of the three pots were as follows. Seeds from the U.S. of monochoria (Monochoria vaginalis), sedge, umbrella (small-flower umbrella sedge, Cyperus difformis), bulrush, […] bulrush, Scirpus juncoides), and […] (purple […] coccinea), were planted into one 16-cm pot for each rate. Seeds from the U.S. of flatsedge, rice (rice flatsedge, Cyperus iria), sprangletop, Brdd. (bearded sprangletop, Leptochloa fascicularis), one stand of 9 or 10 water seeded rice seedlings (Rice, W.S. Jap, Oryza sativa cv. 'Japonica-[…]' or Rice, W.S. Ind, 'Indica'), and two stands of 3 or 4 seedlings of rice, transplanted (transplanted rice, Oryza sativa cv. 'Japonica-[…]') were planted into one 16-cm pot for each rate. Seeds from the U.S. of barnyardgrass (Echinochloa crus-galli), […] (common […], Alisma plantago-aquatica), and watergrass, late (late watergrass, Echinochloa oryzicola) were planted into one 16-cm pot for each rate. Plantings were sequential so that crop and weed species were at the 2.0 to 2.5-leaf stage at time of treatment. Potted plants were grown in a greenhouse with day/night temperature settings of 30/27° C., and supplemental balanced lighting was provided to maintain a 16-h photoperiod. Test pots were maintained in the greenhouse until test completion. At time of treatment, test pots were flooded to 3 cm above the soil surface, treated by application of test compounds directly to the paddy water, and then maintained at that water depth for the duration of the test. Effects of treatments on rice and weeds were visually evaluated by comparison to untreated controls after 21 d. Plant response ratings, summarized in Table F, are based on a scale of 0 to 100 where 0 is no effect and 100 is complete control. A dash (-) response means no test result.

flatsedge, rice = assay: Test F flood (paddy) test; format: in vivo, Cyperus iria; settings: 21 d, scale 0-100
From the text: as §1

windgrass = assay: Test C postemergence herbicide test; format: in vivo, Apera spica-venti
From the text: (§2) At the same time, plants selected from these crop and weed species and also barley (winter barley, Hordeum vulgare), […]), chickweed (common chickweed, Stellaria media), deadnettle (henbit deadnettle, Lamium amplexicaule), and canarygrass (littleseed canarygrass, Phalaris minor) were planted in pots containing Redi-Earth® planting medium (Scotts Company, 14111 Scottslawn Road, Marysville, Ohio 43041) comprising spaghnum peat moss, vermiculite, wetting agent and starter nutrients and treated with postemergence applications of test chemicals formulated in the same manner. Plants ranged in height from 2 to 18 cm (1- to 4-leaf stage) for postemergence treatments. Treated plants and controls were maintained in a greenhouse for 13 to 15 days, after which time all species were compared to controls and visually evaluated. Plant response ratings, summarized in Table C, are based on a scale of 0 to 100 where 0 is no effect and 100 is complete control. A dash (-) response means no test result.

barley (winter barley) = assay: Test C postemergence herbicide test; format: in vivo, Hordeum vulgare
From the text: as §2

[1] = 16 g ai/ha, scale 0 to 100 (0 no effect, 100 complete control)
[2] = 31 g ai/ha, scale 0 (no effect) to 100 (complete control)
[3] = 62 g ai/ha, scale 0 to 100 (0 no effect, 100 complete control)
[4] = 125 g ai/ha, scale 0 to 100 (0 no effect, 100 complete control)
[5] = 250 g ai/ha, scale 0 to 100 (0 no effect, 100 complete control)

Compound	Plant response rating, Rice, W.S. Ind (Rice, W.S. Ind; 125 g ai/ha)	Plant response rating, Rice, W.S. Ind (Rice, W.S. Ind; 250 g ai/ha)	Plant response rating, Rice, W.S. Ind (Rice, W.S. Ind; 500 g ai/ha)	Plant response rating, Windgrass (windgrass; [2])	Plant response rating, Windgrass (windgrass; [3])	Plant response rating, Windgrass (windgrass; [4])	Plant response rating, Barley (barley (winter barley); [2])	Plant response rating, Barley (barley (winter barley); [3])	Plant response rating, Barley (barley (winter barley); [4])	further results
O=C1NCC(c2ccc(Cl)c(Cl)c2)C1C(=O)Nc1ccccc1F (racemic) [Compound 14]										Plant response rating, Cocklebur (cocklebur; 62 g ai/ha): 0; Plant response rating, Cocklebur (cocklebur; 125 g ai/ha): 0; Plant response rating, Cocklebur (cocklebur; 250 g ai/ha): 0
O=C1NCC(c2ccc(F)c(F)c2)C1C(=O)Nc1cccc(F)c1F (racemic) [Compound 101]	20	35	60							Plant response rating, Rice, W.S. Ind (Rice, W.S. Ind; 64 g ai/ha): 0
O=C1NCC(c2cccc(C(F)F)c2)C1C(=O)Nc1ccccc1F (racemic) [Compound 210]	0	0	0							
O=C1NCCC1C(=O)N(c1ccc(F)c(F)c1)c1ccccc1F (stereo not shown) [Compound 5, N-(3,4-difluorophenyl)-N-(2-fluorophenyl)-2-oxo-3-pyrrolidinecarboxamide]										Plant response rating, Sedge, Umbrella (sedge, umbrella; 125 g ai/ha): 0; Plant response rating, Sedge, Umbrella (sedge, umbrella; 250 g ai/ha): 0; Plant response rating, Sedge, Umbrella (sedge, umbrella; 500 g ai/ha): 0; Plant response rating, Sedge, Umbrella (sedge, umbrella; 1000 g ai/ha): 0; Plant response rating, Sedge, Umbrella (sedge, umbrella; 2000 g ai/ha): 0; Plant response rating, Flatsedge, Rice (flatsedge, rice; 125 g ai/ha): 0; Plant response rating, Flatsedge, Rice (flatsedge, rice; 250 g ai/ha): 0; Plant response rating, Flatsedge, Rice (flatsedge, rice; 500 g ai/ha): 0; Plant response rating, Flatsedge, Rice (flatsedge, rice; 1000 g ai/ha): 0; Plant response rating, Flatsedge, Rice (flatsedge, rice; 2000 g ai/ha): 0
O=C1NCC(c2cc(F)c(F)c(F)c2)C1C(=O)Nc1cccc(F)c1F (stereo not shown) [Compound 48]				0	0	0	0	0	0	Plant response rating, Windgrass (windgrass; [1]): 0; Plant response rating, Barley (barley (winter barley); [1]): 0
O=C1NCC(c2cc(F)c(F)cc2F)C1C(=O)Nc1cccc(F)c1F (stereo not shown) [Compound 50]				0	0	0	0	0	0	Plant response rating, Windgrass (windgrass; [5]): 0; Plant response rating, Barley (barley (winter barley); [5]): 0
O=C1NCC(c2ccc(Cl)c(F)c2)C1C(=O)Nc1cccc(F)c1F (stereo not shown) [Compound 52]				0	0	20	0	0	0	Plant response rating, Windgrass (windgrass; [5]): 20; Plant response rating, Barley (barley (winter barley); [5]): 15
O=C1NCC(c2ccc(F)c(Cl)c2)C1C(=O)Nc1ccccc1F (stereo not shown) [Compound 60]				0	0	0	0	0	20	
O=C1NCC(c2ccc(C(F)(F)F)cc2)C1C(=O)Nc1cccc(F)c1F (stereo not shown) [Compound 80, N-(2,3-difluorophenyl)-2-oxo-4-[4-(trifluoromethyl)phenyl]-3-pyrrolidinecarboxamide]										Plant response rating, Cocklebur (cocklebur; 16 g ai/ha): 0; Plant response rating, Cocklebur (cocklebur; 62 g ai/ha): 0; Plant response rating, Cocklebur (cocklebur; 125 g ai/ha): 0; Plant response rating, Cocklebur (cocklebur; 250 g ai/ha): 0
O=C1NC[C@H](c2cccc(C(F)(F)F)c2)[C@H]1C(=O)Nc1ccccc1F [Compound 204, (3R,4S)—N-(2-fluorophenyl)-2-oxo-4-[3-(trifluoromethyl)phenyl]-3-pyrrolidinecarboxamide]	0	10	20							
O=C1NC[C@H](c2cccc(C(F)(F)F)c2)[C@H]1C(=O)Nc1cccc(F)c1F [Compound 206]	25	45	65							Plant response rating, Cocklebur (cocklebur; 31 g ai/ha): 0; Plant response rating, Cocklebur (cocklebur; 62 g ai/ha): 0; Plant response rating, Cocklebur (cocklebur; 125 g ai/ha): 0; Plant response rating, Cocklebur (cocklebur; 250 g ai/ha): 0; Plant response rating, Rice, W.S. Ind (Rice, W.S. Ind; 64 g ai/ha): 15
CN1CC(c2ccc(F)c(F)c2)C(C(=O)Nc2cccc(F)c2F)C1=O (stereo not shown) [Compound 303]	25	40	70							Plant response rating, Sedge, Umbrella (sedge, umbrella; 62 g ai/ha): 0; Plant response rating, Sedge, Umbrella (sedge, umbrella; 125 g ai/ha): 0; Plant response rating, Sedge, Umbrella (sedge, umbrella; 250 g ai/ha): 0; Plant response rating, Sedge, Umbrella (sedge, umbrella; 500 g ai/ha): 0; Plant response rating, Flatsedge, Rice (flatsedge, rice; 62 g ai/ha): 0; Plant response rating, Flatsedge, Rice (flatsedge, rice; 125 g ai/ha): 0; Plant response rating, Flatsedge, Rice (flatsedge, rice; 250 g ai/ha): 0; Plant response rating, Flatsedge, Rice (flatsedge, rice; 500 g ai/ha): 0
